From patent publication US6737383B1, “Herbicidal oxadiazolidines” (priority 1999, dated 2004)

What was measured:
purple nutsedge = assay: Test B pre/postemergence purple nutsedge; format: in vivo, Cyperus rotundus
Method in brief: (§1)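 Herbicidal effect was estimated by eye on a ten-point control scale after plants spent twelve to sixteen days in a greenhouse following soil or foliar treatment. Foliar sprays targeted plants at one to four leaves; all doses were formulated in a non-phytotoxic solvent with surfactant.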

surinam grass = assay: Test B pre/postemergence surinam grass; format: in vivo, Brachiaria decumbens
Method in brief: as §1

bamyardgrass = assay: Test B flood test barnyardgrass; format: in vivo, Echinochloa crus-galli
Method in brief: (§2)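 Plants were grown to the 2-leaf stage before treatment with test chemical, then held in a greenhouse for twelve to sixteen days. Injury was visually rated against untreated controls on a 0–10 scale, where 0 is no effect and 10 is complete control.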

morningglory = assay: Test B pre/postemergence morningglory; format: in vivo, Ipomoea hederacea
Method in brief: as §1

crabgrass = assay: Test B pre/postemergence crabgrass; format: in vivo, Digitaria sanguinalis
Method in brief: as §1

corn = assay: Test B pre/postemergence corn; format: in vivo, Zea mays
Method in brief: as §1

sugar beet = assay: Test B pre/postemergence sugar beet; format: in vivo, Beta vulgaris
Method in brief: as §1

giant foxtail = assay: Test B pre/postemergence giant foxtail; format: in vivo, Setaria faberii
Method in brief: as §1

cocklebur = assay: Test B pre/postemergence cocklebur; format: in vivo, Xanthium strumarium
Method in brief: as §1

wheat = assay: Test B pre/postemergence wheat; format: in vivo, Triticum aestivum
Method in brief: as §1

rice = assay: Test B flood test rice; format: in vivo, Oryza sativa
Method in brief: as §2

smallflower flatsedge = assay: Test B flood test smallflower flatsedge; format: in vivo, Cyperus difformis
Method in brief: as §2

blackgrass = assay: Test B pre/postemergence blackgrass; format: in vivo, Alopecurus myosuroides
Method in brief: as §1

soybean = assay: Test B pre/postemergence soybean; format: in vivo, Glycine max
Method in brief: as §1

rape = assay: Test B pre/postemergence rape; format: in vivo, Brassica napus
Method in brief: as §1

duck salad = assay: Test B flood test duck salad; format: in vivo, Heteranthera limosa
Method in brief: as §2

wild oat = assay: Test B pre/postemergence wild oat; format: in vivo, Avena fatua
Method in brief: as §1

velvetleaf = assay: Test B pre/postemergence velvetleaf; format: in vivo, Abutilon theophrasti
Method in brief: as §1

pigweed = assay: Test B pre/postemergence pigweed; format: in vivo, Amaranthus retroflexus
Method in brief: as §1

[1] = Postemergence, Rate 62 g/ha, scale 0 to 10, 0 is no effect, 10 is complete control
[2] = Postemergence, Rate 125 g/ha, scale of 0 to 10 where 0 is no effect and 10 is complete control
[3] = Postemergence, Rate 250 g/ha, scale of 0 to 10, 0 is no effect, 10 is complete control
[4] = Postemergence, Rate 500 g/ha, scale of 0 to 10 where 0 is no effect and 10 is complete control
[5] = Preemergence, Rate 62 g/ha, scale 0 to 10 (0 no effect, 10 complete control)
[6] = Preemergence, Rate 125 g/ha, scale of 0 to 10 where 0 is no effect and 10 is complete control
[7] = Preemergence, Rate 500 g/ha, scale of 0 to 10 where 0 is no effect and 10 is complete control
[8] = Rate 62 g/ha, flood test species, Pre-emergence, visual evaluation after twelve to sixteen days
[9] = Rate 125 g/ha, under heading Pre-emergence, flood test species, visual evaluation after twelve to sixteen days
[10] = Rate 250 g/ha, Pre-emergence (flood test species), scale 0 to 10, 0 is no effect, 10 is complete control
[11] = Rate 500 g/ha, Pre-emergence section of Table B, 0 to 10 scale (0 no effect, 10 complete control)

With `CC(C)N(C(=O)n1oc(=O)n(CC(C)[N+](=O)[O-])c1=O)c1ccc(F)cc1F` (centres unmarked) [Compound 603] the “Plant response rating, Nutsedge” value (purple nutsedge; [1]) was 0, the “Plant response rating, Nutsedge” value (purple nutsedge; [2]) was 0 and the “Nutsedge plant response rating” value (purple nutsedge; [3]) was 0. For the same molecule, the “Plant response rating, Nutsedge” value (purple nutsedge; [4]) was 0, the “Nutsedge plant response rating” value (purple nutsedge; [5]) was 0 and the “Nutsedge plant response rating” value (purple nutsedge; [6]) was 0. For the same molecule, the “Plant response rating, Nutsedge” value (purple nutsedge; [7]) was 0, the “Plant response rating, B. signalgrass” value (surinam grass; [1]) was 0 and the “Plant response rating, B. signalgrass” value (surinam grass; [2]) was 0. The “B. signalgrass plant response rating” value (surinam grass; [3]) was 0, the “Plant response rating, B. signalgrass” value (surinam grass; [4]) was 0 and the “B. signalgrass plant response rating” value (surinam grass; [5]) was 0. The “B. signalgrass plant response rating” value (surinam grass; [6]) was 0, the “B. signalgrass plant response rating (0 to 10 scale, 0 is no effect, 10 is complete control)” value (surinam grass; Preemergence, Rate 250 g/ha) was 0 and the “B. signalgrass plant response rating” value (surinam grass; [7]) was 0. The “Plant response rating, Barnyardgrass (0 to 10 scale, 0 is no effect, 10 is complete control)” value (bamyardgrass; [8]) was 0, the “Barnyardgrass plant response rating (0 to 10 scale, 0 is no effect, 10 is complete control)” value (bamyardgrass; [9]) was 0 and the “Barnyardgrass plant response rating” value (bamyardgrass; [10]) was 0. For the same molecule, the “Barnyardgrass plant response rating” value (bamyardgrass; [11]) was 0, the “Plant response rating, Morningglory” value (morningglory; [1]) was 0 and the “Plant response rating, Morningglory” value (morningglory; [2]) was 0. For the same molecule, the “Morningglory plant response rating” value (morningglory; [3]) was 2, the “Plant response rating, Morningglory” value (morningglory; [4]) was 3 and the “Morningglory plant response rating” value (morningglory; [5]) was 0. For the same molecule, the “Morningglory plant response rating” value (morningglory; [6]) was 0, the “Plant response rating, Morningglory” value (morningglory; [7]) was 0 and the “Plant response rating, Crabgrass” value (crabgrass; [1]) was 0. The “Plant response rating, Crabgrass” value (crabgrass; [2]) was 0, the “Crabgrass plant response rating” value (crabgrass; [3]) was 0 and the “Plant response rating, Crabgrass” value (crabgrass; [4]) was 0. For the same molecule, the “Crabgrass plant response rating” value (crabgrass; [5]) was 0, the “Crabgrass plant response rating” value (crabgrass; [6]) was 0 and the “Plant response rating, Crabgrass” value (crabgrass; [7]) was 0. The “Plant response rating, Corn” value (corn; [1]) was 0, the “Plant response rating, Corn” value (corn; [2]) was 0 and the “Corn plant response rating” value (corn; [3]) was 0. For the same molecule, the “Plant response rating, Corn” value (corn; [4]) was 0, the “Corn plant response rating” value (corn; [5]) was 0 and the “Corn plant response rating” value (corn; [6]) was 0. The “Corn plant response rating (0 to 10 scale)” value (corn; Preemergence, Rate 250 g/ha) was 0, the “Plant response rating, Corn” value (corn; [7]) was 0 and the “Plant response rating, Sugarbeets” value (sugar beet; [1]) was 0. The “Plant response rating, Sugarbeets” value (sugar beet; [2]) was 0, the “Sugarbeets plant response rating” value (sugar beet; [3]) was 0 and the “Plant response rating, Sugarbeets” value (sugar beet; [4]) was 0. For the same molecule, the “Sugarbeets plant response rating” value (sugar beet; [5]) was 0, the “Sugarbeets plant response rating” value (sugar beet; [6]) was 0 and the “Plant response rating, Sugarbeets” value (sugar beet; [7]) was 0. The “Plant response rating, Giant foxtail” value (giant foxtail; [1]) was 0, the “Plant response rating, Giant foxtail” value (giant foxtail; [2]) was 0 and the “Giant foxtail plant response rating” value (giant foxtail; [3]) was 0. For the same molecule, the “Plant response rating, Giant foxtail” value (giant foxtail; [4]) was 0, the “Giant foxtail plant response rating” value (giant foxtail; [5]) was 0 and the “Giant foxtail plant response rating” value (giant foxtail; [6]) was 0. The “Plant response rating, Giant foxtail” value (giant foxtail; [7]) was 0, the “Plant response rating, Cocklebur” value (cocklebur; [1]) was 0 and the “Plant response rating, Cocklebur” value (cocklebur; [2]) was 0. The “Cocklebur plant response rating” value (cocklebur; [3]) was 0, the “Plant response rating, Cocklebur” value (cocklebur; [4]) was 0 and the “Cocklebur plant response rating” value (cocklebur; [5]) was 0. The “Cocklebur plant response rating” value (cocklebur; [6]) was 0, the “Cocklebur plant response rating (0 to 10 scale)” value (cocklebur; Preemergence, Rate 250 g/ha) was 0 and the “Plant response rating, Cocklebur” value (cocklebur; [7]) was 0. The “Plant response rating, Wheat” value (wheat; [1]) was 0, the “Plant response rating, Wheat” value (wheat; [2]) was 0 and the “Wheat plant response rating” value (wheat; [3]) was 0. The “Plant response rating, Wheat” value (wheat; [4]) was 0, the “Wheat plant response rating” value (wheat; [5]) was 0 and the “Wheat plant response rating” value (wheat; [6]) was 0. For the same molecule, the “Plant response rating, Wheat” value (wheat; [7]) was 0, the “Plant response rating, Rice (0 to 10 scale, 0 is no effect, 10 is complete control)” value (rice; [8]) was 0 and the “Rice plant response rating (0 to 10 scale, 0 is no effect, 10 is complete control)” value (rice; [9]) was 0. The “Rice plant response rating” value (rice; [10]) was 0, the “Rice plant response rating” value (rice; [11]) was 0 and the “Plant response rating, S. Flatsedge (0 to 10 scale, 0 is no effect, 10 is complete control)” value (smallflower flatsedge; [8]) was 0. For the same molecule, the “S. Flatsedge plant response rating (0 to 10 scale, 0 is no effect, 10 is complete control)” value (smallflower flatsedge; [9]) was 0, the “S. Flatsedge plant response rating” value (smallflower flatsedge; [10]) was 0 and the “S. Flatsedge plant response rating” value (smallflower flatsedge; [11]) was 0. The “Plant response rating, Blackgrass” value (blackgrass; [1]) was 0, the “Plant response rating, Blackgrass” value (blackgrass; [2]) was 0 and the “Blackgrass plant response rating” value (blackgrass; [3]) was 0. The “Plant response rating, Blackgrass” value (blackgrass; [4]) was 0, the “Blackgrass plant response rating” value (blackgrass; [5]) was 0 and the “Blackgrass plant response rating” value (blackgrass; [6]) was 0. The “Blackgrass plant response rating (0 to 10 scale)” value (blackgrass; Preemergence, Rate 250 g/ha) was 0, the “Blackgrass plant response rating” value (blackgrass; [7]) was 0 and the “Plant response rating, Soybean” value (soybean; [1]) was 0. The “Plant response rating, Soybean” value (soybean; [2]) was 0, the “Soybean plant response rating” value (soybean; [3]) was 2 and the “Plant response rating, Soybean” value (soybean; [4]) was 2. The “Soybean plant response rating” value (soybean; [5]) was 0, the “Soybean plant response rating” value (soybean; [6]) was 0 and the “Plant response rating, Soybean” value (soybean; [7]) was 0. The “Plant response rating, Rape” value (rape; [1]) was 0, the “Plant response rating, Rape” value (rape; [2]) was 0 and the “Rape plant response rating” value (rape; [3]) was 0. For the same molecule, the “Plant response rating, Rape” value (rape; [4]) was 0, the “Rape plant response rating” value (rape; [5]) was 0 and the “Rape plant response rating” value (rape; [6]) was 0. The “Plant response rating, Rape” value (rape; [7]) was 0, the “Plant response rating, Ducksalad (0 to 10 scale, 0 is no effect, 10 is complete control)” value (duck salad; [8]) was 0 and the “Ducksalad plant response rating (0 to 10 scale, 0 is no effect, 10 is complete control)” value (duck salad; [9]) was 0. For the same molecule, the “Ducksalad plant response rating” value (duck salad; [10]) was 0, the “Ducksalad plant response rating” value (duck salad; [11]) was 0 and the “Plant response rating, Wild oats” value (wild oat; [1]) was 0. The “Plant response rating, Wild oats” value (wild oat; [2]) was 0, the “Wild oats plant response rating” value (wild oat; [3]) was 0 and the “Plant response rating, Wild oats” value (wild oat; [4]) was 0. For the same molecule, the “Wild oats plant response rating” value (wild oat; [5]) was 0, the “Wild oats plant response rating” value (wild oat; [6]) was 0 and the “Plant response rating, Wild oats” value (wild oat; [7]) was 0. The “Plant response rating, Velvetleaf” value (velvetleaf; [1]) was 0, the “Plant response rating, Velvetleaf” value (velvetleaf; [2]) was 0 and the “Velvetleaf plant response rating” value (velvetleaf; [3]) was 0. The “Plant response rating, Velvetleaf” value (velvetleaf; [4]) was 2, the “Velvetleaf plant response rating” value (velvetleaf; [5]) was 0 and the “Velvetleaf plant response rating” value (velvetleaf; [6]) was 0. The “Plant response rating, Velvetleaf” value (velvetleaf; [7]) was 0, the “Plant response rating, Redroot pigweed” value (pigweed; [1]) was 0 and the “Plant response rating, Redroot pigweed” value (pigweed; [2]) was 0. For the same molecule, the “Redroot pigweed plant response rating” value (pigweed; [3]) was 0, the “Plant response rating, Redroot pigweed” value (pigweed; [4]) was 0 and the “Redroot pigweed plant response rating” value (pigweed; [5]) was 0. For the same molecule, the “Redroot pigweed plant response rating” value (pigweed; [6]) was 0 and the “Plant response rating, Redroot pigweed” value (pigweed; [7]) was 0.
